The term inhibition denotes the percentage by which the read-out fell short of the control.

This note sets out measurements from US20140135310A1, “SULPHONAMIDE DERIVATIVES OF ALICYCLIC AMINES FOR THE TREATMENT OF CENTRAL NERVOUS SYSTEM DISEASES” (Adamed Sp. z o.o., priority 2011, published 2014).

Assay [1] addresses T1, 5-HT2C receptor (Homo sapiens, UniProt P28335).
T1 construct: expressed in transfected cells; host or cells: HEK-293 cells
T1 sequence (P28335 33-458): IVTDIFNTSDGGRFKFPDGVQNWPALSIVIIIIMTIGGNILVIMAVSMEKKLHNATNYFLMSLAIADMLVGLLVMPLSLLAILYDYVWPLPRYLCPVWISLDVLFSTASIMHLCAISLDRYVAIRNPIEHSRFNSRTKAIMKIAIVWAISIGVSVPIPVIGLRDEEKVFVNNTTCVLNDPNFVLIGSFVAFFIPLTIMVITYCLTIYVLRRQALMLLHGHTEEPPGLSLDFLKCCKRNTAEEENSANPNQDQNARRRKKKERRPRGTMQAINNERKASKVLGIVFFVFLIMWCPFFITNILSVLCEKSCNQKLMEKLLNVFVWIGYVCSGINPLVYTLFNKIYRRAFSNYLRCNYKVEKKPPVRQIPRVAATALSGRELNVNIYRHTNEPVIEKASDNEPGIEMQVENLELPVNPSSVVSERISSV
As to the kind of experiment: Radioligand binding assay, serotoninergic 5-HT2C receptors. To be noted: test compound 1×10^−6 M.

The target of assay [2] is T2, H1 histaminergic receptors (Homo sapiens, UniProt P35367).
T2 construct: expressed in transfected cells; host or cells: HEK-293 cells
Briefly: Radioligand binding assay, histaminergic H1 receptors. To be noted: human recombinant (HEK-293 cells), [3H]pyrilamine 1 nM. The method, boiled down:
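Competition binding at human H1 receptors; specific binding taken as total minus non-specific binding in excess unlabelled ligand, scintillation read-out. IC50 from Hill-equation fit of competition curves; Ki by Cheng-Prusoff using radioligand concentration and Kd (from Scatchard plot).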

The target in assay [3] is dopaminergic receptors D2 (Homo sapiens, UniProt P14416). As to the kind of experiment: Radioligand binding assay, dopaminergic D2 receptors. Particulars: binding assay, test compound 1×10^−6 M. The method, boiled down:
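Total binding is counted by scintillation and non-specific binding subtracted using an excess of unlabelled ligand. IC50 comes from a Hill-equation fit with slope factor; Ki follows Cheng–Prusoff.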

The target of assay [4] is T3, serotonin transporter (SERT) (Homo sapiens, UniProt P31645).
T3 construct: expressed in transfected cells; host or cells: CHO cells
As to the kind of experiment: Radioligand binding assay, serotonin transporter (SERT). To be noted: binding assay, test compound 1×10^−6 M. The method, boiled down:
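Radioligand competition binding with scintillation detection; specific binding is total minus binding under excess unlabelled ligand. Reported as % of control specific binding or % inhibition; IC50 from Hill-equation non-linear regression of competition curves, and Ki via Cheng-Prusoff using radioligand concentration and Scatchard-derived KD.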

Assay [5] addresses T4, 5-HT7 receptor (Homo sapiens, UniProt P34969).
T4 construct: purchased PerkinElmer
Briefly: Radioligand binding assay, serotoninergic 5-HT7 receptors.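 Further: test compound at 1 µM.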 To be noted: binding assay result in %, Table 5a. The method, boiled down: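 Competition binding at human 5-HT7 receptors with a radioligand, detected by scintillation counting; non-specific binding was defined with excess unlabelled ligand. IC50 came from Hill-equation fits of competition curves, and Ki from Cheng–Prusoff using radioligand concentration and Scatchard-derived KD.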

Assay [6] deals with T5, α2C adrenergic receptors (Homo sapiens, UniProt P18825).
T5 construct: expressed in transfected cells; host or cells: CHO cells
T5 sequence (P18825 1-462): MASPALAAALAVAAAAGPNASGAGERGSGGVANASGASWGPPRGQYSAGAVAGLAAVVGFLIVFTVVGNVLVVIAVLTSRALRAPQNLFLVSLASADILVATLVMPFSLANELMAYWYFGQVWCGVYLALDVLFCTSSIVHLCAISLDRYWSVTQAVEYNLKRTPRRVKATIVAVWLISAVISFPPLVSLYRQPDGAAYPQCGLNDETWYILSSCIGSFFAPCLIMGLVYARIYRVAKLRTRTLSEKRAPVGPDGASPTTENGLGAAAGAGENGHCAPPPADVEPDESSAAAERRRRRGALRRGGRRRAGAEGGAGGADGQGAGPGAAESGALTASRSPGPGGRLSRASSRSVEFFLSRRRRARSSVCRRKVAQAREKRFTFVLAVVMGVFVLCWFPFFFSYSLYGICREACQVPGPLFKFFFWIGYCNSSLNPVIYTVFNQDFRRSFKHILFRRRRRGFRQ
As to the kind of experiment: Radioligand binding assay, adrenergic α2C receptors. To be noted: test compound 1×10^−6 M. The method, boiled down:
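Competitive radioligand binding at human α2C receptors, with scintillation counting. Nonspecific binding defined with excess unlabelled ligand; results given as % inhibition of control specific binding. IC50 from Hill-equation fits of competition curves; Ki via Cheng-Prusoff using radioligand concentration and Scatchard-derived KD.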

The target of assay [7] is T6, 5-HT1A receptor (rat hippocampus) (Rattus norvegicus, UniProt P19327).
T6 construct: hippocampus; from tissue; host or cells: rat hippocampus
T6 sequence (P19327 1-422): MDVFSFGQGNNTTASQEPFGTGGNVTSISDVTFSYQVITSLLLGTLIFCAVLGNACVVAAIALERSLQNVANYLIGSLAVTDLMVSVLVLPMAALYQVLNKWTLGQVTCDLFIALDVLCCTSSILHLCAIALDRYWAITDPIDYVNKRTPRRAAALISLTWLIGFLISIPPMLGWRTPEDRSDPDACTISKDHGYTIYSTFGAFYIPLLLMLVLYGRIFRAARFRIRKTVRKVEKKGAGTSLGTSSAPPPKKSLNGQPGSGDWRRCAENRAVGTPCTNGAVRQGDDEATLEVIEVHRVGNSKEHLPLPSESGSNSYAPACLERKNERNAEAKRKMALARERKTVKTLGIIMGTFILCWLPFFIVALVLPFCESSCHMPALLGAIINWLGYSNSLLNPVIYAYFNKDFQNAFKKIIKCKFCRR
Briefly: Radioligand binding assay, serotoninergic 5-HT1A receptors.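 Further: test compound at 1 µM.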 To be noted: binding assay result in %, Table 5a.

Sequence of dopaminergic receptors D2 (P14416 whole entry): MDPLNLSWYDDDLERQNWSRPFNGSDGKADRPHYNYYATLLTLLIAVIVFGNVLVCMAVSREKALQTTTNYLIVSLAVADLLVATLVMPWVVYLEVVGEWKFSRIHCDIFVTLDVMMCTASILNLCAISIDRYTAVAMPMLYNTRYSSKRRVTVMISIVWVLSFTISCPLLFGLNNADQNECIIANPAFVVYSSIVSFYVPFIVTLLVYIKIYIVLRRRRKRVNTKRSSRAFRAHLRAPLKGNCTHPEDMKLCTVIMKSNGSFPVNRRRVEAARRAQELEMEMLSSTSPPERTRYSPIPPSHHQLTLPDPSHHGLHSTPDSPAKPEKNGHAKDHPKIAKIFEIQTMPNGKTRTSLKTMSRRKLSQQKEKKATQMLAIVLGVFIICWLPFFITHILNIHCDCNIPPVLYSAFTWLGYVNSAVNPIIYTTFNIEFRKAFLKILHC
T3 sequence (P31645 whole entry): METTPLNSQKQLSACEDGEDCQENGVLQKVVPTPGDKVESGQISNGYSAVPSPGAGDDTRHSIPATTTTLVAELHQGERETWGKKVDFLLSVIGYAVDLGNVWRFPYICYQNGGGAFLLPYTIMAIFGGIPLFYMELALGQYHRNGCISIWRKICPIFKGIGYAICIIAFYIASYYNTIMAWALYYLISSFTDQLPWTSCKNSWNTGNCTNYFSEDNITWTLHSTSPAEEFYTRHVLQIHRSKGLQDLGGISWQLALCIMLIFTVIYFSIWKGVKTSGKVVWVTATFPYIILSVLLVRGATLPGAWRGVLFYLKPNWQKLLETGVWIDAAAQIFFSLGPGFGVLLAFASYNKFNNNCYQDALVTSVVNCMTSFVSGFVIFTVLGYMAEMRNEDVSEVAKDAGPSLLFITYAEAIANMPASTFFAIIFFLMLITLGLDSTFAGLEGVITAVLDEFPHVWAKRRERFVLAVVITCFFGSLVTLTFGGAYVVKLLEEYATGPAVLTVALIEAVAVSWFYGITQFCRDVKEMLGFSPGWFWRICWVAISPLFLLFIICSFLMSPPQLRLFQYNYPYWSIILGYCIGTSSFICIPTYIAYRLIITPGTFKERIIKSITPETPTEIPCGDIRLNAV
T2 sequence (P35367 whole entry): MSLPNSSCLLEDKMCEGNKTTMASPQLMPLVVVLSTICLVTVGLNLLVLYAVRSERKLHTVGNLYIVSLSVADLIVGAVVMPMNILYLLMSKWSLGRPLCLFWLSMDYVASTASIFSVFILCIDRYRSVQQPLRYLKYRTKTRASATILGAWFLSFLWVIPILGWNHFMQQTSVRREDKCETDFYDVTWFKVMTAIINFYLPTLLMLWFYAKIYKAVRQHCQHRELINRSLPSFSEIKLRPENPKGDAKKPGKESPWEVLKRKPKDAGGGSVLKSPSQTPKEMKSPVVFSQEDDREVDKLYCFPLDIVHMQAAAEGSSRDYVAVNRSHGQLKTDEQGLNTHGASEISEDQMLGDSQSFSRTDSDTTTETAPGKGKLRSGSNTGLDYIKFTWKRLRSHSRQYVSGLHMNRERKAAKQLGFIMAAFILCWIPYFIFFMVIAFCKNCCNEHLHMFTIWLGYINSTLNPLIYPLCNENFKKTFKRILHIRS
T4 sequence (P34969 whole entry): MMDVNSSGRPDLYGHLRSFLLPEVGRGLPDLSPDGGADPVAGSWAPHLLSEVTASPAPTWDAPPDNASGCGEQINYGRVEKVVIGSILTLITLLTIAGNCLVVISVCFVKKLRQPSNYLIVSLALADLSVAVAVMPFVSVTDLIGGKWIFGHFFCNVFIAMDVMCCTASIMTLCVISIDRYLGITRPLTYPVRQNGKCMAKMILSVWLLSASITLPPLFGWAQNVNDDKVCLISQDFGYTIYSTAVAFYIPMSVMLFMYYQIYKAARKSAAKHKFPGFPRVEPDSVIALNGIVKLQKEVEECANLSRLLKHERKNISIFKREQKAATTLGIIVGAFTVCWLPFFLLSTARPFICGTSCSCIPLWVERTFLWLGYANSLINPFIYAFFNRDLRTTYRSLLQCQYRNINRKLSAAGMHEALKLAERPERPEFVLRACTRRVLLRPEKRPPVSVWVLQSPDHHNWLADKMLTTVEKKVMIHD

`O=S(=O)(NCC1CCN(CCOc2cccc3c2OCCO3)C1)c1ccc2c(c1)CCO2` (stereo not drawn) [Compound 306, N-[[1-[2-(2,3-Dihydro-1,4-benzodioxin-5-yloxy)ethyl]pyrrolidin-3-yl]-methyl]-2,3-dihydrobenzofuran-5-sulphonamide]: the inhibition at 1 µM in assay [1] was determined as 36%; in assay [2] it was 57%; in assay [3], 51%; in assay [4], 90%; in assay [5] it was 94%; in assay [6], 98%. The compound also registered an inhibition at 1 µM in assay [7] of 99%.
With `Cn1ccc2cc(S(=O)(=O)NCC3CCN(CCOc4cccc5c4OCCO5)C3)ccc21` (stereo not drawn) [Compound 308, N-[[1-[2-(2,3-Dihydro-1,4-benzodioxin-5-yloxy)ethyl]pyrrolidin-3-yl]methyl]-1-methyl-indole-5-sulphonamide], the inhibition at 1 µM was determined as 61% in assay [1]; 37% in assay [2]; 57% in assay [3]; 95% in assay [4]; 83% in assay [5]; 96% in assay [6]. The compound further gave an inhibition at 1 µM in assay [7] of 98%.
`Cc1cc(S(=O)(=O)NCC2CCN(CCOc3cccc4c3OCCO4)C2)c(C)s1` (stereo not drawn) [Compound 312, N-[[1-[2-(2,3-Dihydro-1,4-benzodioxin-5-yloxy)ethyl]pyrrolidin-3-yl]methyl]-2,5-dimethylthiophene-3-sulphonamide]: the inhibition at 1 µM in assay [1] amounted to 55%; in assay [2] it was 35%; in assay [3], 36%; in assay [4], 87%; in assay [5], 86%; in assay [6], 94%. The same compound had an inhibition at 1 µM in assay [7] of 98%.
For the compound `O=S(=O)(NCC1CCN(CCOc2cccc3c2OCCO3)C1)c1ccc(F)c(Cl)c1` (stereo not drawn) [Compound 317, 3-Chloro-N-[[1-[2-(2,3-dihydro-1,4-benzodioxin-5-yloxy)ethyl]pyrrolidin-3-yl]methyl]-4-fluorobenzenesulphonamide], the inhibition at 1 µM stood at 45% in assay [1]; 47% in assay [2]; 53% in assay [3]; 63% in assay [4]; 95% in assay [5]; 95% in assay [6]. Besides, in assay [7], 1 µM produced 100% inhibition.
With “N-[1-[3-(6-Fluoro-1,2-benzoxazol-3-yl)propyl]pyrrolidin-3-yl]-1-methyl-imidazole-4-sulphonamide [Compound 217]”, the “5-HT2C [%]” value in assay [1] turned out to be 67%. Also, the “H1 [%]” value in assay [2] amounted to 46%. Further, in assay [3], the “D2 [%]” value came to 96%. Further, in assay [4], the “SERT [%]” value is recorded as 90%. Also, the “5-HT7 [%]” value in assay [5] worked out at 97%. Moreover, the “α2C [%]” value in assay [6] came to 96%. Further, in assay [7], the “5-HT1A [%]” value was 54%.
Regarding “N-[[1-[2-[(2,2-Dimethyl-3H-benzofuran-7-yl)oxy]ethyl]azetidin-3-yl]methyl]-3-hydroxy-benzenesulphonamide [Compound 111]”, in assay [1], the “5-HT2C [%]” value is given as 87%. Moreover, the “H1 [%]” value in assay [2] was determined as 38%. Besides, in assay [3], the “D2 [%]” value amounted to 97%. In assay [4], the “SERT [%]” value came to 15%. Moreover, in assay [5], the “5-HT7 [%]” value is on record as 100%. In addition, the “α2C [%]” value in assay [6] was determined as 90%. Moreover, the “5-HT1A [%]” value in assay [7] is reported as 99%.
